Patent publication US9302999B2, “Substituted triazoles as herbicides” (E. I. DU PONT DE NEMOURS AND COMPANY, priority 2012, dated 2016)

Assays:
Format in all cases: in vivo
[1] = tested on: cocklebur (common cocklebur, Xanthium strumarium); test: Test C pre-/postemergence: cocklebur
Method in brief: (§1)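 Visual injury scored 0–100 (100 = complete control) against untreated controls after 13–15 greenhouse days. Surfactant-containing solvent formulations applied either to soil after sowing (loam/sand) or over 1- to 4-leaf plants, 2–18 cm tall.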

[2] = tested on: windgrass (Apera spica-venti); test: Test C postemergence: windgrass
Method in brief: (§2)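 Plants at the 1- to 4-leaf stage (2 to 18 cm tall), grown in pots of peat moss/vermiculite planting medium, received postemergence applications of the formulated test chemicals. After 13 to 15 days in a greenhouse, injury was scored visually versus controls from 0 (no effect) to 100 (complete control).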

[3] = tested on: foxtail, green (green foxtail, Setaria viridis); test: Test C pre-/postemergence: foxtail, green
Method in brief: as §1

[4] = tested on: canarygrass (Phalaris minor); test: Test C postemergence: canarygrass
Method in brief: as §2

[5] = tested on: goosegrass (Eleusine indica); test: Test C pre-/postemergence: goosegrass
Method in brief: as §1

[6] = tested on: nightshade (eastern black nightshade, Solanum ptycanthum); test: Test C pre-/postemergence: nightshade; conditions: Preemergence
Method in brief: as §1

[7] = tested on: barley (winter barley, Hordeum vulgare); test: Test C postemergence: barley
Method in brief: as §2

[8] = tested on: bromegrass, downy (downy bromegrass, Bromus tectorum); test: Test C pre-/postemergence: bromegrass, downy
Method in brief: as §1

[9] = tested on: common (oilseed) sunflower (Helianthus annuus); test: Test C pre-/postemergence: sunflower; conditions: Preemergence
Method in brief: as §1

[10] = Postemergence, 31 g ai/ha, scale 0 to 100 (0 no effect, 100 complete control)
[11] = Postemergence, 62 g ai/ha, scale 0 to 100 (0 no effect, 100 complete control)
[12] = Postemergence, 125 g ai/ha, scale 0 to 100, 0 no effect, 100 complete control
[13] = Preemergence, 16 g ai/ha, scale 0 (no effect) to 100 (complete control)
[14] = Preemergence, 31 g ai/ha, scale of 0 to 100, 0 is no effect, 100 is complete control
[15] = Preemergence, 125 g ai/ha, scale 0 to 100, 0 no effect, 100 complete control
[16] = 16 g ai/ha, scale 0 to 100, 0 no effect, 100 complete control
[17] = 31 g ai/ha, scale 0 to 100 (0 no effect, 100 complete control)
[18] = 62 g ai/ha, scale 0 to 100 (0 no effect, 100 complete control)
[19] = 125 g ai/ha, scale 0 to 100, 0 no effect, 100 complete control
[20] = Postemergence, 16 g ai/ha, scale 0 to 100, 0 no effect, 100 complete control
[21] = Preemergence, 62 g ai/ha, scale of 0 to 100, 0 is no effect, 100 is complete control
[22] = 16 g ai/ha, scale 0 (no effect) to 100 (complete control)
[23] = 31 g ai/ha, scale of 0 to 100, 0 is no effect, 100 is complete control
[24] = 62 g ai/ha, scale of 0 to 100, 0 is no effect, 100 is complete control
[25] = Preemergence, 62 g ai/ha, scale 0 to 100, 0 no effect, 100 complete control
[26] = Postemergence, 250 g ai/ha, scale 0 to 100
[27] = Preemergence, 250 g ai/ha, scale 0 to 100, 0 no effect, 100 complete control
[28] = 250 g ai/ha, scale 0 to 100, 0 no effect, 100 complete control

COc1nn(-c2ccc(C(F)(F)F)cc2)nc1Cc1ccnc(C(F)(F)F)c1 [Compound 15, 4-[[5-methoxy-2-[4-(trifluoromethyl)phenyl]-2H-1,2,3-triazol-4-yl]methyl]-2-(trifluoromethyl)pyridine]
Plant response rating, Cocklebur [1, 10]: 5 | Plant response rating, Cocklebur [1, 11]: 60 | Plant response rating, Cocklebur [1, 12]: 75 | Plant response rating, Cocklebur [1, 13]: 0 | Plant response rating, Cocklebur [1, 14]: 0 | Plant response rating, Cocklebur [1, 15]: 65 | Plant response rating, Windgrass [2, 16]: 20 | Plant response rating, Windgrass [2, 17]: 20 | Plant response rating, Windgrass [2, 18]: 85 | Plant response rating, Windgrass [2, 19]: 90 | Plant response rating, Foxtail, Green [3, 20]: 30 | Plant response rating, Foxtail, Green [3, 10]: 40 | Plant response rating, Foxtail, Green [3, 11]: 85 | Plant response rating, Foxtail, Green [3, 12]: 85 | Plant response rating, Foxtail, Green [3, 13]: 95 | Plant response rating, Foxtail, Green [3, 14]: 95 | Plant response rating, Foxtail, Green [3, 21]: 100 | Plant response rating, Foxtail, Green [3, 15]: 100 | Plant response rating, Canarygrass [4, 16]: 35 | Plant response rating, Canarygrass [4, 17]: 60 | Plant response rating, Canarygrass [4, 18]: 85 | Plant response rating, Canarygrass [4, 19]: 85 | Plant response rating, Goosegrass [5, 20]: 5 | Plant response rating, Goosegrass [5, 10]: 25 | Plant response rating, Goosegrass [5, 11]: 40 | Plant response rating, Goosegrass [5, 12]: 65 | Plant response rating, Goosegrass [5, 13]: 100 | Plant response rating, Goosegrass [5, 14]: 100 | Plant response rating, Goosegrass [5, 21]: 100 | Plant response rating, Goosegrass [5, 15]: 100 | Plant response rating, Nightshade [6, 22]: 10 | Plant response rating, Nightshade [6, 23]: 25 | Plant response rating, Nightshade [6, 24]: 85 | Plant response rating, Nightshade [6, 19]: 90 | Plant response rating, Barley [7, 16]: 30 | Plant response rating, Barley [7, 17]: 35 | Plant response rating, Barley [7, 18]: 35 | Plant response rating, Barley [7, 19]: 50 | Plant response rating, Bromegrass, Downy [8, 20]: 10 | Plant response rating, Bromegrass, Downy [8, 10]: 25 | Plant response rating, Bromegrass, Downy [8, 11]: 35 | Plant response rating, Bromegrass, Downy [8, 12]: 40 | Plant response rating, Bromegrass, Downy [8, 13]: 15 | Plant response rating, Bromegrass, Downy [8, 14]: 25 | Plant response rating, Bromegrass, Downy [8, 25]: 30 | Plant response rating, Bromegrass, Downy [8, 15]: 80 | Plant response rating, Sunflower [9, 22]: 0 | Plant response rating, Sunflower [9, 23]: 0 | Plant response rating, Sunflower [9, 24]: 0 | Plant response rating, Sunflower [9, 19]: 25

Cc1nn(-c2ccc(C(F)(F)F)cn2)nc1Oc1ccnc(C(F)(F)F)c1 [Compound 23]
Plant response rating, Cocklebur [1, 10]: 25 | Plant response rating, Cocklebur [1, 11]: 25 | Plant response rating, Cocklebur [1, 12]: 40 | Plant response rating, Cocklebur [1, 26]: 50 | Plant response rating, Cocklebur [1, 14]: 0 | Plant response rating, Cocklebur [1, 25]: 0 | Plant response rating, Cocklebur [1, 15]: 5 | Plant response rating, Cocklebur [1, 27]: 5 | Plant response rating, Windgrass [2, 17]: 10 | Plant response rating, Windgrass [2, 18]: 15 | Plant response rating, Windgrass [2, 19]: 15 | Plant response rating, Windgrass ([2]; 250 g ai/ha, scale 0 to 100): 15 | Plant response rating, Foxtail, Green [3, 11]: 30 | Plant response rating, Foxtail, Green [3, 12]: 45 | Plant response rating, Foxtail, Green [3, 26]: 50 | Plant response rating, Foxtail, Green [3, 14]: 100 | Plant response rating, Foxtail, Green [3, 21]: 100 | Plant response rating, Foxtail, Green [3, 15]: 100 | Plant response rating, Foxtail, Green [3, 27]: 100 | Plant response rating, Canarygrass [4, 17]: 5 | Plant response rating, Canarygrass [4, 18]: 10 | Plant response rating, Canarygrass [4, 19]: 15 | Plant response rating, Canarygrass ([4]; 250 g ai/ha, scale 0 to 100): 15 | Plant response rating, Goosegrass [5, 10]: 10 | Plant response rating, Goosegrass [5, 11]: 10 | Plant response rating, Goosegrass [5, 12]: 15 | Plant response rating, Goosegrass [5, 26]: 30 | Plant response rating, Goosegrass [5, 14]: 95 | Plant response rating, Goosegrass [5, 21]: 100 | Plant response rating, Goosegrass [5, 15]: 100 | Plant response rating, Goosegrass [5, 27]: 100 | Plant response rating, Nightshade [6, 23]: 50 | Plant response rating, Nightshade [6, 24]: 90 | Plant response rating, Nightshade [6, 19]: 95 | Plant response rating, Nightshade [6, 28]: 98 | Plant response rating, Barley [7, 17]: 5 | Plant response rating, Barley [7, 18]: 15 | Plant response rating, Barley [7, 19]: 20 | Plant response rating, Barley ([7]; 250 g ai/ha, scale 0 to 100): 30 | Plant response rating, Bromegrass, Downy [8, 10]: 5 | Plant response rating, Bromegrass, Downy [8, 11]: 5 | Plant response rating, Bromegrass, Downy [8, 12]: 5 | Plant response rating, Bromegrass, Downy [8, 26]: 5 | Plant response rating, Bromegrass, Downy [8, 14]: 0 | Plant response rating, Bromegrass, Downy [8, 25]: 0 | Plant response rating, Bromegrass, Downy [8, 15]: 5 | Plant response rating, Bromegrass, Downy [8, 27]: 10 | Plant response rating, Sunflower [9, 23]: 0 | Plant response rating, Sunflower [9, 24]: 0 | Plant response rating, Sunflower [9, 19]: 0 | Plant response rating, Sunflower [9, 28]: 0

Fc1ccc(-n2nc(Cc3ccnc(C(F)(F)F)c3)c(OC(F)F)n2)cc1 [Compound 25]
Plant response rating, Cocklebur [1, 10]: 15 | Plant response rating, Cocklebur [1, 11]: 20 | Plant response rating, Cocklebur [1, 12]: 20 | Plant response rating, Cocklebur [1, 26]: 20 | Plant response rating, Cocklebur [1, 14]: 0 | Plant response rating, Cocklebur [1, 25]: 0 | Plant response rating, Cocklebur [1, 15]: 0 | Plant response rating, Cocklebur [1, 27]: 30 | Plant response rating, Windgrass [2, 17]: 30 | Plant response rating, Windgrass [2, 18]: 35 | Plant response rating, Windgrass [2, 19]: 40 | Plant response rating, Windgrass ([2]; 250 g ai/ha, scale 0 to 100): 40 | Plant response rating, Foxtail, Green [3, 10]: 35 | Plant response rating, Foxtail, Green [3, 11]: 35 | Plant response rating, Foxtail, Green [3, 12]: 35 | Plant response rating, Foxtail, Green [3, 26]: 70 | Plant response rating, Foxtail, Green [3, 14]: 90 | Plant response rating, Foxtail, Green [3, 21]: 95 | Plant response rating, Foxtail, Green [3, 15]: 95 | Plant response rating, Foxtail, Green [3, 27]: 95 | Plant response rating, Canarygrass [4, 17]: 5 | Plant response rating, Canarygrass [4, 18]: 10 | Plant response rating, Canarygrass [4, 19]: 30 | Plant response rating, Canarygrass ([4]; 250 g ai/ha, scale 0 to 100): 55 | Plant response rating, Goosegrass [5, 10]: 15 | Plant response rating, Goosegrass [5, 11]: 20 | Plant response rating, Goosegrass [5, 12]: 25 | Plant response rating, Goosegrass [5, 26]: 40 | Plant response rating, Goosegrass [5, 14]: 90 | Plant response rating, Goosegrass [5, 21]: 100 | Plant response rating, Goosegrass [5, 15]: 100 | Plant response rating, Goosegrass [5, 27]: 100 | Plant response rating, Nightshade [6, 23]: 10 | Plant response rating, Nightshade [6, 24]: 45 | Plant response rating, Nightshade [6, 19]: 95 | Plant response rating, Nightshade [6, 28]: 95 | Plant response rating, Barley [7, 17]: 20 | Plant response rating, Barley [7, 18]: 25 | Plant response rating, Barley [7, 19]: 30 | Plant response rating, Barley ([7]; 250 g ai/ha, scale 0 to 100): 30 | Plant response rating, Bromegrass, Downy [8, 10]: 5 | Plant response rating, Bromegrass, Downy [8, 11]: 5 | Plant response rating, Bromegrass, Downy [8, 12]: 5 | Plant response rating, Bromegrass, Downy [8, 26]: 10 | Plant response rating, Bromegrass, Downy [8, 14]: 5 | Plant response rating, Bromegrass, Downy [8, 25]: 5 | Plant response rating, Bromegrass, Downy [8, 15]: 40 | Plant response rating, Bromegrass, Downy [8, 27]: 80 | Plant response rating, Sunflower [9, 23]: 0 | Plant response rating, Sunflower [9, 24]: 0 | Plant response rating, Sunflower [9, 19]: 0 | Plant response rating, Sunflower [9, 28]: 0
